We go through 28 compounds from PubChem BioAssay (NCI).

SMILES strings stand for the structures.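 Values below derive from 48-hour exposures of cells grown in 96-well plates, with endpoints linearly interpolated between the two concentrations bracketing the appropriate inhibition level. TGI denotes the concentration required for complete inhibition of growth.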

What all share (assay): NCI anticancer screen, dose series, 48 h
Assay [1] deals with SW-620 colon.
Assay [2] has as its system UACC-62 melanoma.
Assay [3] has as its system OVCAR-8 ovarian.
The test system of assay [4] is OVCAR-4 ovarian.
Assay [5] deals with NCI-H23 lung.
Assay [6] concerns A549 NSCLC.
Assay [7] concerns NCI-H460 lung.
In assay [8] the test system is NCI-H522 lung.
The test system of assay [9] is HL-60(TB) leukemia.
Assay [10] concerns A498 renal.

`O=C1NC(NNc2ccccc2)=N/C1=C\c1ccco1`: the TGI is 60.7 µM in [1]; 17.3 µM in [2]; 32.7 µM in assay [3]; 32.7 µM in assay [4]; 45.9 µM in assay [5]; over 100 µM in assay [6]. The TGI in assay [7] was 55 µM; in [8], 27.8 µM; in [9] it was 90.3 µM; in assay [10], over 100 µM.

With `C[C@H]1[C@H](C)CC[C@]2(C(=O)O)CCC3(COC(=O)/C=C/c4ccc(O)cc4)C(=CCC4[C@@]5(C)CC[C@H](O)C(C)(C)C5CC[C@]43C)[C@H]12` (some centres not stated), the TGI was 18 µM in assay [1]; 23 µM in assay [2]; 26.5 µM in [3]; 29.7 µM in [4]; 10.3 µM in assay [6]; 11.2 µM in assay [7]. The results for the TGI in [8], in assay [9] and in [10] were 17.1 µM, 53.1 µM and 15.3 µM, respectively.

Consider `CC(=O)c1ccc(Nc2nc3ccccc3c3occc23)cc1`, for which the TGI in [2] was 41.3 µM; in [3], over 100 µM; in [4], 8.78 µM; in [5] it was 46.6 µM; in [6] it was over 100 µM; in [7] it was 23 µM. In addition, the TGI in assay [8] is 9.12 µM; in assay [9], 2.4 µM; in assay [10] it was 12.3 µM.

`CCOC(=O)C(C(=O)OCC)S(C)(=O)=O`: the TGI in assay [1], in assay [2], in assay [3], in [4], in assay [5] and in assay [6] was over 100 µM in each case. Also, the TGI in assay [7], in [8], in assay [9] and in assay [10] was over 100 µM each time.

For the compound `COc1cc2c(cc1OC)-c1cc3cc(OC)c(OC)cc3c(C)[n+]1CC2` (tested in a mixture with another compound), the TGI in [1] was over 100 µM; in [2], 95.5 µM; in [3], over 100 µM; in assay [4], over 100 µM; in [5], over 100 µM; in assay [6], over 100 µM. The TGI in [7] is 71.2 µM; in assay [8], over 100 µM; in assay [9], over 100 µM; in assay [10], over 100 µM.

In the case of `CCOC(=O)NC(C(F)(F)F)(C(F)(F)F)P(=O)(OCC)OCC`, the TGI in assay [1], in assay [2], in assay [3], in [4], in [5] and in assay [7] was over 100 µM each time. The TGI in assay [8] is 36.9 µM; in assay [9] it was over 100 µM; in [10], over 100 µM.

Regarding `Cc1ccc(C(CCO)CCO)nc1`, the TGI in assay [1], in [2], in assay [3], in assay [4], in assay [5] and in assay [6] was over 100 µM each time. Besides, the TGI in assay [7], in assay [8], in assay [9] and in [10] was over 100 µM in each case.

`CCCCCCc1cc2cc(-c3cn4ccccc4n3)c(=O)oc2cc1O`: the TGI in assay [1] was over 53.6 µM; in assay [2], 20.6 µM; in assay [3], 28.5 µM; in assay [4] it was 17.5 µM; in [5] it was 17 µM; in [6], 31.2 µM. The TGI is 36.1 µM in [7], 15.1 µM in [8], over 100 µM in assay [9] and 50.7 µM in assay [10].

Regarding `C[N+]1(C)C/C(=C\C=C\c2ccccc2)C(=O)/C(=C/C=C/c2ccccc2)C1`, the TGI in [1] was 41.5 µM; in [2] it was 14.2 µM; in [3], 53.1 µM; in assay [4], over 84.2 µM; in [5], 34.4 µM; in [6] it was over 100 µM. Moreover, the TGI in assay [7] was 59.1 µM; in assay [8], 21.5 µM; in [9], 4.13 µM; in [10], over 94.9 µM.

For `O=C(NCCCN1CCN(CCCNC(=O)c2cc(-c3ccccc3)nc3ccccc23)CC1)c1cc(-c2ccccc2)nc2ccccc12`, the TGI in assay [1] is over 29.5 µM; in assay [2], 37.5 µM; in [3] it was 29.7 µM; in assay [4], over 58.4 µM; in assay [5] it was over 100 µM; in assay [6], 48.7 µM. Further, the TGI in [7] was over 64.7 µM; in assay [8] it was 32 µM; in assay [9], over 51.8 µM; in assay [10] it was 73.6 µM.

Regarding `CC(C)(C)c1cc(OCc2n[nH]c(=S)n2N)c(Cl)cc1OCc1n[nH]c(=S)n1N`, the TGI in [1] was over 100 µM; in [2], 50.3 µM; in assay [3] it was over 100 µM; in assay [4] it was over 100 µM; in assay [5], over 100 µM; in assay [6], over 100 µM. The TGI was 77.9 µM in [7], over 100 µM in [8], 58.5 µM in assay [9] and over 100 µM in assay [10].

Take `[O-][N+]1=C(c2ccccc2)/C(=C2/C(c3ccccc3)=[N+]([O-])c3ccccc32)Cc2ccccc21`: the TGI in assay [1] turned out to be 59.2 µM; in assay [2], 28.7 µM; in [3] it was 35.6 µM; in [4], 38.9 µM; in [5], 34.7 µM; in assay [6], 35.2 µM. Further, the values for the TGI in assay [8], in assay [9] and in assay [10] were 30.5 µM, over 100 µM and 21.1 µM, respectively.

`CCOC(=O)c1c(Br)c(-c2ccc([N+](=O)[O-])cc2)c(Br)n1C`: the TGI in assay [2], in assay [3], in [4], in assay [5], in [6] and in assay [7] was over 10 µM each time. Further, the TGI in [8], in [9] and in assay [10] was over 10 µM in each case.

For `CC(=O)c1sc2c(c1OC(=O)c1ccccc1)c(=O)n(-c1ccccc1)c(=S)n2-c1ccccc1`, the TGI is over 82.6 µM in [1]; 32.8 µM in [2]; over 28.3 µM in [3]; 57.9 µM in [4]; over 71.9 µM in assay [5]; over 100 µM in assay [6]. In addition, the TGI in assay [7] is over 59.5 µM; in assay [8], 67.8 µM; in [9], over 68.1 µM; in [10] it was 7.87 µM.

As to `COc1c(-c2ccc(F)cc2)oc2c(CC(=O)O)cccc2c1=O`, the TGI in assay [2], in assay [3], in assay [5], in assay [6], in assay [8] and in [9] was over 100 µM each time. The compound also gave a TGI in assay [10] of over 100 µM.

As to `Cc1c2c(n3c(nc4ccccc43)c1C#N)NCC2`, the TGI in [1], in assay [2], in [3], in assay [4], in assay [5] and in assay [6] was over 10 µM in each case. Also, the TGI in assay [7], in assay [9] and in [10] was over 10 µM each time.

Take `O=c1[nH]c(Br)nc2n[nH]nc12`: the TGI in assay [1], in assay [2], in assay [3], in assay [4], in assay [5] and in [6] was over 100 µM in each case. Further, the TGI in assay [7], in [8], in [9] and in [10] was over 100 µM each time.

Regarding `c1cc2cc(Cc3ccc4[nH]ccc4c3)ccc2[nH]1`, the TGI in [1] worked out at 93.3 µM; in assay [2], 38.9 µM; in assay [4] it was 28.7 µM; in [5], 39.8 µM; in [6] it was 34.8 µM; in assay [7], 31.1 µM. For the same compound, the values for the TGI in assay [8], in [9] and in assay [10] were 34.5 µM, 54.4 µM and 37.3 µM, respectively.

Take `O=C(/C=C/c1ccc(O)c(O)c1)c1ccc(O)cc1O`: the TGI in assay [1] was found to be 35.2 µM; in [2], 48.3 µM; in assay [3], 51 µM; in [4] it was 37.8 µM; in [5], 39.9 µM; in [6], 72.3 µM. Further, the TGI in assay [7] was 36.3 µM; in [8] it was 8.65 µM; in assay [9], 22.3 µM; in assay [10], 34.7 µM.

Turning to `COc1cccc(C2c3cc4c(cc3OC(NNC(N)=O)C2C)OCO4)c1OC` (configuration not stated), the TGI is over 100 µM in [1]; 53 µM in [2]; 17.9 µM in assay [3]; 77.8 µM in assay [5]; 56 µM in [6]; 68 µM in assay [7]. For the same compound, the figures for the TGI in [8], in assay [9] and in assay [10] were 61.5 µM, 57.4 µM and 51.1 µM, respectively.

For the compound `Cc1cc(N(CCC#N)CCC#N)ccc1/C=C(\N=[N+]=[N-])C(=O)NC(=O)COc1ccccc1`, the TGI in [1], in assay [2], in [3], in assay [4], in assay [5] and in assay [6] was over 100 µM in each case. The TGI in [7], in assay [8], in assay [9] and in [10] was over 100 µM each time.

On to `Cc1ccc(/C=C2\CCS(=O)(=O)c3ccccc3C2=O)cc1`, for which the TGI in [1] was 47.9 µM; in assay [2], 33.4 µM; in assay [3] it was 30.7 µM; in [4], 34.8 µM; in assay [5], 29.6 µM; in [6], over 100 µM. For the same compound, the values for the TGI in assay [7], in [9] and in assay [10] were 31.3 µM, 73.1 µM and 36.5 µM, respectively.

As to `CC(c1ccccc1)n1c2ccccc2c2c(N)ncnc21` (configuration not stated), the TGI was found to be 47.4 µM in [1]; 31.8 µM in [3]; 31.2 µM in assay [4]; 39.5 µM in assay [5]; 46.3 µM in [6]; 58.3 µM in assay [7]. For the same compound, the values for the TGI in [8], in [9] and in assay [10] were 31.2 µM, 47.8 µM and 30.3 µM, respectively.

Consider `COC(=O)CCc1cc(OC)c2oc(-c3ccc(OC)c(OC)c3)c(CO)c2c1`, for which the TGI in [1], in assay [2], in assay [3], in assay [4], in [5] and in [6] was over 100 µM each time. The TGI in assay [7], in [8], in [9] and in [10] was over 100 µM in each case.

`Cc1ccc2nc(-c3nccn3C)cc(C(=O)NC(C)CN(C)C)c2c1` (configuration not stated): the TGI in assay [1], in assay [2], in assay [3], in [5], in [6] and in assay [7] was over 100 µM throughout. Also, the TGI in assay [9] and in assay [10] was over 100 µM in each case.

With `COc1cc(C2SCC(=O)N2c2ccc(Cl)cc2)cc(OC)c1OC` (configuration not stated), the TGI in assay [1], in assay [3], in assay [4], in assay [5], in assay [6] and in assay [7] was over 100 µM each time. For the same compound, the values for the TGI in assay [8], in [9] and in assay [10] were over 100 µM, 29.2 µM and over 100 µM, respectively.

Consider `NC1C2C=CC(C2)C1C(=O)O` (configuration not stated), for which the TGI in assay [1], in assay [2], in [3], in assay [4], in assay [5] and in assay [6] was over 100 µM in each case. Moreover, the TGI in [8], in assay [9] and in assay [10] was over 100 µM in each case.

For the compound `CC(=O)Oc1ccc(C)c2c1[C@H]1CC[C@]3(C)[C@@H](OC(C)=O)CC[C@H]3[C@@H]1CC2`, the TGI came out at 34.4 µM in [1]; 34.5 µM in assay [2]; 58.3 µM in [3]; 34.7 µM in [5]; 50.8 µM in assay [6]; 37.4 µM in assay [7]. Besides, the TGI in assay [8] was 34.1 µM; in assay [9], 51.5 µM; in [10] it was 31.4 µM.
